The text below walks through data of ChEMBL document CHEMBL4825748, “Rapid Evaluation of Small Molecule Cellular Target Engagement with a Luminescent Thermal Shift Assay” (ACS Med Chem Lett, 2021).

The target in assay [1] is Mitogen-activated protein kinase 14 (Homo sapiens) (UniProt Q16539). Briefly: Binding affinity to HiBiT-tagged MAPK14 (unknown origin) assessed as shift in melting/aggregation temperature at 10 uM by luminescence based BiTSA assay. A general note: With HiBiT, luminescence reflects the tagged protein that the partner subunit can reach.
Mitogen-activated protein kinase 14 (Homo sapiens), sequence (Q16539 whole entry): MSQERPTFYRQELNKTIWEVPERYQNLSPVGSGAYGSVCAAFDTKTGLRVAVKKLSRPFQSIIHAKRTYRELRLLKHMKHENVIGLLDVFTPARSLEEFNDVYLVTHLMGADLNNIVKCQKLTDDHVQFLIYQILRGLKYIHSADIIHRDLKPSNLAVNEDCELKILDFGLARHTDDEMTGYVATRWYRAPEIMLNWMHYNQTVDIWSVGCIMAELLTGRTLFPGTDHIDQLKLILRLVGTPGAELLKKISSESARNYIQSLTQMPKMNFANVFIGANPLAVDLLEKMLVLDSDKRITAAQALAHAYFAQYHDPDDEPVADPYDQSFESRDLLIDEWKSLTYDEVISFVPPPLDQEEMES
Assay [2] has as its system GTPase KRas (Homo sapiens), P01116 [G12C]. Briefly: Binding affinity to KRAS G12C mutant (unknown origin) by traditional Western blot CETSA analysis. Background: Immunoblotting shows a protein as a band on a membrane.
For assay [3] the test system is unchanged. Briefly: Binding affinity to HiBiT-tagged KRAS G12C mutant in human NCI-H358 cells assessed as stabilization by measuring luminescence signal by BiTSA-ITDR assay. In kind it is cell-based.
The target in assay [4] is T1, 5'-AMP-activated protein kinase subunit beta-1 (Homo sapiens) (UniProt Q9Y478).
T1 sequence (whole entry): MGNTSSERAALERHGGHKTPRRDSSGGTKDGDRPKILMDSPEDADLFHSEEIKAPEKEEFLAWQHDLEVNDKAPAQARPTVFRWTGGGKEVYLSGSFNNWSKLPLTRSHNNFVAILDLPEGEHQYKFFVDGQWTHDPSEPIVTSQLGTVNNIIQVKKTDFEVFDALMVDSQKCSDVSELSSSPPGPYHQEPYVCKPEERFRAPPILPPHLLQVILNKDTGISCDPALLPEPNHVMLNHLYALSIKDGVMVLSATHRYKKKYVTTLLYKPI
The experiment in a line: Binding affinity to HiBiT-tagged PRKAB1 (unknown origin) assessed as shift in melting/aggregation temperature by luminescence based BiTSA assay.

Assay [5] has as its system Cellular tumor antigen p53 (Homo sapiens), P04637 [R273H]. The experiment in a line: Binding affinity to HiBiT-tagged p53 R273H mutant in human MDA-MB-468 cells assessed as p53 refolding by measuring change in melting temperature at 25 to 100 uM by luminescence based BiTSA assay. The format is cell-based. As to conditions: dose 25-100 µM.
Assay [6] shares this test system. The experiment in a line: Binding affinity to HiBiT-tagged p53 R273H mutant in human MDA-MB-468 cells assessed as p53 refolding by measuring change in melting temperature at 2.5 to 10 uM by luminescence based BiTSA assay. The format is cell-based. As to conditions: dose 2.5-10 µM.

Calls of active or inactive are those of the source. No cut-off for these calls is given here.

GTPase KRas (Homo sapiens), P01116 [G12C], sequence (P01116 whole entry G12C): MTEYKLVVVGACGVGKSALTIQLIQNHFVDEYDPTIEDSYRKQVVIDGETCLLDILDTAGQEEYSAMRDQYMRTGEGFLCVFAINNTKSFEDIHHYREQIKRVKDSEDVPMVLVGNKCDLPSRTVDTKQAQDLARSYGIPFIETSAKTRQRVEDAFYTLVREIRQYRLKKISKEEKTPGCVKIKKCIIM

In the case of `Cn1c(NC[C@@H](N)Cc2ccccc2)nc(-c2ccncc2)c(-c2ccc3ccccc3c2)c1=O`, in assay [1], the Tm is 12.4 °C.
For `C=CC(=O)N1CCN(c2ncnc3c(F)c(-c4c(O)cccc4F)c(Cl)cc23)CC1`, the outcome in assay [2] was Active. Also, the outcome in assay [3] was inactive.
Regarding `O[C@@H]1CO[C@H]2[C@@H]1OC[C@H]2Oc1nc2nc(-c3ccc(-c4ccccc4)cc3)c(Cl)cc2[nH]1`, the outcome in assay [4] was inactive.
Regarding `COCC1(CO)C(=O)C2CCN1CC2` (stereo unspecified), the result in assay [5] was inactive.
As to `CN(C)CCCNc1nc(CN2CCN(C(c3ccc(Cl)cc3)c3ccc(Cl)cc3)CC2)nc2ccccc12`, the outcome in assay [6] was inactive.
